Measurements published in patent US10221163B2 (priority 2015, dated 2019).
Like-named read-outs stand apart in the source and are kept apart here.

Experiments:
[1] = system: Pseudomonas aeruginosa efflux− (MB9799), IMP-1; format: cell-based; details: concentration restoring susceptibility to imipenem at 2 μg/mL in the presence of a class A, C, D serine β-lactamase inhibitor closely related to relebactam
How it was run: (§1)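 Steps: add fixed imipenem and/or ceftazidime (usually CLSI breakpoint) and fixed AmpC-directed class A/C inhibitor to microbroth MIC wells; titrate MBL inhibitor; record concentration regaining susceptibility for each PAO1-derived strain; divide efflux+ by efflux− value.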

[2] = system: Escherichia coli expressing NDM-1 (CLB30005, CLB30016); format: cell-based; details: NDM-1 strain, with imipenem 1 μg/ml, 95% inhibition of growth
How it was run: (§2)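 Imipenem 1 μg/ml + inhibitor; MBL-expressing clinical strains in 1.1×CAMHB, inoculum from saline suspension diluted 1:100; 35° C, 22–24 h; absorbance read-out.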

[3] = system: Serratia marcescens expressing IMP-1 (CL5741); format: cell-based; details: IMP-1 strain CL5741, with imipenem 1 μg/ml, 95% inhibition of growth
How it was run: as §2

[4] = system: Klebsiella pneumoniae expressing VIM-1 (IHMA599644); format: cell-based; details: VIM-1 strain IHMA599644, with imipenem 1 μg/ml, 95% inhibition of growth
How it was run: as §2

[5] = system: Pseudomonas aeruginosa MB9798 vs MB9799; details: ratio MITC95 PA_9798/MITC95 PA_9799
How it was run: as §1

NDM-1 = NDM-1 (Klebsiella pneumoniae, UniProt C7C422); experiment: biochemical; format: biochemical; details: fluorescence assay, CCF2-FA substrate, 1 pM enzyme, 2 hours at 25° C.; read-out: NDM-1 IC50
Sequence of NDM-1 (C7C422 whole entry, looked up, species assumed): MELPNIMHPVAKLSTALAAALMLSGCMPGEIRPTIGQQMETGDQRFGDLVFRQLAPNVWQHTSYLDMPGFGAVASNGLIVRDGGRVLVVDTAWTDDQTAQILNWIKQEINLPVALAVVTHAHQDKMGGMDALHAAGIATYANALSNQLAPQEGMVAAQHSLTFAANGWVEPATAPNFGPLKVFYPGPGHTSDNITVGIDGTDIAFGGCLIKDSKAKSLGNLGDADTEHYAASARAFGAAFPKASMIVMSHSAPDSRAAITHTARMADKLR
How it was run: (§3)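 Fluorescence assay of metallo-β-lactamase activity using CCF2-FA, a cephalosporin-linked 7-hydroxycoumarin–fluorescein substrate. Inhibitor, enzyme and substrate were incubated together for 2 hours at 25° C. IC50 came from a 4-parameter fit of inhibition versus inhibitor concentration.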

IMP-1 = IMP-1 (Serratia marcescens, UniProt P52699); experiment: biochemical; format: biochemical; details: fluorescence assay, CCF2-FA substrate, 2 pM enzyme, 2 hours at 25° C.; read-out: IMP-1 IC50
Sequence of IMP-1 (P52699 whole entry, looked up, species assumed): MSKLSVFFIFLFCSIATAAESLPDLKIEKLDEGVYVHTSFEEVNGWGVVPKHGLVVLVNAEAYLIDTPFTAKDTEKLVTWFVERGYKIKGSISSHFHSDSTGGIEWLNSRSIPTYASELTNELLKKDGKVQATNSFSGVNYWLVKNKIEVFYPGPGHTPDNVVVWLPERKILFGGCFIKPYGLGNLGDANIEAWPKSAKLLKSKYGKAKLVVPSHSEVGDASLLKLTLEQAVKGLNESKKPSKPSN
How it was run: as §3

[6] = system: Pseudomonas aeruginosa efflux+ (MB9798), IMP-1; format: cell-based; details: concentration restoring susceptibility to imipenem at 2 μg/mL in the presence of a class A, C, D serine β-lactamase inhibitor closely related to relebactam
How it was run: as §1

VIM-1 = VIM-1 (Pseudomonas aeruginosa (strain ATCC 15692 / DSM 22644 / CIP 104116 / JCM 14847 / LMG 12228 / 1C / PRS 101 / PAO1), UniProt A0A0F7KYQ8); experiment: biochemical; details: CCF2-FA substrate, 30 pM enzyme, 2 hours at 25° C.
How it was run: as §3

[7] = fluorescence assay, read-out: VIM-1 IC50

| SMILES | P. aeruginosa expressing IMP-1, efflux − (MB9799) MITC95 [1] [µM] | Escherichia coli MITC95 [2] [µM] | Serratia marcescens MITC95 [3] [µM] | Klebsiella pneumoniae MITC95 [4] [µM] | Efflux ratio [5] | IC50 (NDM-1) [nM] | IC50 (IMP-1) [nM] | P. aeruginosa expressing IMP-1, efflux + (MB9798) MITC95 [6] [µM] | IC50 (VIM-1; VIM-1 IC50, fluorescence assay) [nM] | IC50 (VIM-1; [7]) [nM] |
| --- | --- | --- | --- | --- | --- | --- | --- | --- | --- | --- |
| Nc1nc2c(-c3ccc(S(=O)(=O)NC[C@@H]4CCNC4)c(S(N)(=O)=O)c3-c3nn[nH]n3)cccc2[nH]1 [Example 263, (R)-4-(2-amino-1H-benzo[d]imidazol-4-yl)-N1-(pyrrolidin-3-ylmethyl)-3-(2H-tetrazol-5-yl)benzene-1,2-disulfonamide] | 0.7813 | 0.3906 | 0.7813 | 1.563 | 1.00 | 0.0461 | 0.864 | 0.7813 | 0.205 | – |
| CC[C@@H](CN)NS(=O)(=O)c1ccc(-c2cccc3[nH]c(N)nc23)c(-c2nn[nH]n2)c1S(N)(=O)=O [Example 264, (S)-4-(2-amino-1H-benzo[d]imidazol-4-yl)-N1-(1-aminobutan-2-yl)-3-(2H-tetrazol-5-yl)benzene-1,2-disulfonamide] | 0.7813 | 0.7813 | 1.563 | 1.563 | 4.00 | 0.2 | 5.93 | 3.125 | – | 0.47 |
| CC[C@H](CN)NS(=O)(=O)c1ccc(-c2cccc3[nH]c(N)nc23)c(-c2nn[nH]n2)c1S(N)(=O)=O [Example 265, (R)-4-(2-amino-1H-benzo[d]imidazol-4-yl)-N1-(1-aminobutan-2-yl)-3-(2H-tetrazol-5-yl)benzene-1,2-disulfonamide] | 0.7813 | 1.563 | 0.7813 | 1.563 | 1.00 | 0.0241 | 0.292 | 0.7813 | – | 0.0927 |
| C[C@H](CCN)NS(=O)(=O)c1ccc(-c2cccc3[nH]c(N)nc23)c(-c2nn[nH]n2)c1S(N)(=O)=O [Example 266, (R)-4-(2-amino-1H-benzo[d]imidazol-4-yl)-N1-(4-aminobutan-2-yl)-3-(2H-tetrazol-5-yl)benzene-1,2-disulfonamide] | 0.7813 | 0.7813 | 0.7813 | 0.7813 | 0.50 | 0.0282 | 0.477 | 0.3906 | – | 0.115 |
| C[C@@H](CCN)NS(=O)(=O)c1ccc(-c2cccc3[nH]c(N)nc23)c(-c2nn[nH]n2)c1S(N)(=O)=O [Example 267, (S)-4-(2-amino-1H-benzo[d]imidazol-4-yl)-N1-(4-aminobutan-2-yl)-3-(2H-tetrazol-5-yl)benzene-1,2-disulfonamide] | 0.7813 | 0.7813 | 1.563 | 1.563 | 1.00 | 0.179 | 1.63 | 0.7813 | – | 0.279 |
| NCCN1CC[C@H](NS(=O)(=O)c2ccc(-c3cccc4[nH]c(N)nc34)c(-c3nn[nH]n3)c2S(N)(=O)=O)C1 [Example 268, (S)-4-(2-amino-1H-benzo[d]imidazol-4-yl)-N1-(1-(2-aminoethyl)pyrrolidin-3-yl)-3-(2H-tetrazol-5-yl)benzene-1,2-disulfonamide] | 0.7813 | 0.7813 | 1.563 | 1.563 | 1.00 | 0.0612 | 1.1 | 0.7813 | 0.15 | – |
| NCC(=O)NC1CCC[C@@H](c2ccc(S(=O)(=O)N[C@@H]3CCNC3)c(S(N)(=O)=O)c2-c2nn[nH]n2)C1 (stereo partly drawn) [Example 270, 2-Amino-N-((3R)-3-(4-(N—((R)-pyrrolidin-3-yl)sulfamoyl)-3-sulfamoyl-2-(2H-tetrazol-5-yl)phenyl)cyclohexyl)acetamide] | 1.563 | 1.563 | 3.125 | 3.125 | 1.00 | 0.244 | 2.32 | 1.563 | – | 0.202 |
| NC(=O)c1nc2c(-c3ccc(S(=O)(=O)N[C@@H]4CCNC4)c(S(N)(=O)=O)c3-c3nn[nH]n3)cccc2[nH]1 [Example 271, (R)-4-(4-(N-(pyrrolidin-3-yl)sulfamoyl)-3-sulfamoyl-2-(2H-tetrazol-5-yl)phenyl)-1H-benzo[d]imidazole-2-carboxamide] | 1.563 | 1.563 | 0.7813 | 3.125 | 0.50 | 0.0196 | 0.271 | 0.7813 | – | 0.0989 |
| C[C@H](N)c1nc2c(-c3ccc(S(=O)(=O)N[C@@H]4CCNC4)c(S(N)(=O)=O)c3-c3nn[nH]n3)cccc2[nH]1 [Example 272, 4-(2-((S)-1-aminoethyl)-1H-benzo[d]imidazol-4-yl)-N1-((R)-pyrrolidin-3-yl)-3-(2H-tetrazol-5-yl)benzene-1,2-disulfonamide] | 0.7813 | 3.125 | 1.563 | 1.563 | 2.00 | 0.0667 | 1.36 | 1.563 | – | 0.11 |
| C[C@@H](N)c1nc2c(-c3ccc(S(=O)(=O)N[C@@H]4CCNC4)c(S(N)(=O)=O)c3-c3nn[nH]n3)cccc2[nH]1 [Example 273, 4-(2-((R)-1-aminoethyl)-1H-benzo[d]imidazol-4-yl)-N1-((R)-pyrrolidin-3-yl)-3-(2H-tetrazol-5-yl)benzene-1,2-disulfonamide] | 0.7813 | 1.563 | 1.563 | 1.563 | 1.00 | 0.0565 | 1.41 | 0.7813 | – | 0.124 |
| NCc1nc2cc(-c3ccc(S(=O)(=O)N[C@@H]4CCNC4)c(S(N)(=O)=O)c3-c3nn[nH]n3)ccc2[nH]1 [Example 274, (R)-4-(2-(aminomethyl)-1H-benzo[d]imidazol-5-yl)-N1-(pyrrolidin-3-yl)-3-(2H -tetrazol-5-yl)benzene-1,2-disulfonamide] | 0.7813 | 0.7813 | 1.563 | 1.563 | 1.00 | 0.0833 | 0.486 | 0.7813 | – | 0.102 |
| NCc1nc2cc(-c3ccc(S(=O)(=O)N[C@@H]4CCNC4)c(S(N)(=O)=O)c3-c3nn[nH]n3)ccc2s1 [Example 275, (R)-4-(2-(aminomethyl)benzo[d]thiazol-5-yl)-N^1-(pyrrolidin-3-yl)-3-(2H-tetrazol-5-yl)benzene-1,2-disulfonamide] | 0.7813 | 0.7813 | 0.7813 | 1.563 | 1.00 | 0.0633 | 0.171 | 0.7813 | 0.0902 | – |
